Reference: paper PMC9614482, “The superior salinity tolerance of bread wheat cultivar Shanrong No. 3 is unlikely to be caused by elevated Ta-sro1 poly-(ADP-ribose) polymerase activity” (The Plant Cell, 2022)

Columns and labels:
AtPARP2 = target: T1, AtPARP2 (Arabidopsis thaliana, UniProt Q11207); experiment: immunoprecipitated GFP fusion, pan-ADP-ribose immunoblot; format: biochemical; conditions: 300 µM β-NAD+ in extraction buffer; auto-ADP-ribosylation, PAR chain formation
T1 construct: gene PARP2; GFP fusion, transiently expressed in Nicotiana benthamiana, immunoprecipitated with GFP-nanobody
T1 sequence (Q11207 whole entry, the tested form may be a part): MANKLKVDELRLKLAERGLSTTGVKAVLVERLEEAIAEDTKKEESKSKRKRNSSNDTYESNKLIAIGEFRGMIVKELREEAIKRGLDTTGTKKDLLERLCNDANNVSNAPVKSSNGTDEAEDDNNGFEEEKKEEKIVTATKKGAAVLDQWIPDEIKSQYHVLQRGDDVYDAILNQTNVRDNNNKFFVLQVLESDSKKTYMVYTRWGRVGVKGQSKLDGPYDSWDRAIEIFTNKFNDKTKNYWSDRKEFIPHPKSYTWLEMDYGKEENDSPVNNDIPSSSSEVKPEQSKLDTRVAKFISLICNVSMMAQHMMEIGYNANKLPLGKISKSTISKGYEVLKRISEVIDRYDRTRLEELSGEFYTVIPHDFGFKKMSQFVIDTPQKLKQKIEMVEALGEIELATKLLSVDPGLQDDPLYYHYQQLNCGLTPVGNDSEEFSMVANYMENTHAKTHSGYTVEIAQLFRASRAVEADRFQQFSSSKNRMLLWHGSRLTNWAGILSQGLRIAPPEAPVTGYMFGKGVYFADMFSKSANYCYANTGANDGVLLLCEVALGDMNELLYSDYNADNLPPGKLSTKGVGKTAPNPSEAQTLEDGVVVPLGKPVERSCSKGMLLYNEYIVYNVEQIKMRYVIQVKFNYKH

HsPARP1 (full-length) = target: T2, HsPARP1 (full-length) (Homo sapiens, UniProt P09874); format: biochemical; conditions: histones as substrates
T2 construct: gene PARP1; full-length protein supplied in the PARP Universal Colorimetric Assay Kit (Trevigen)
T2 sequence (P09874 2-1014): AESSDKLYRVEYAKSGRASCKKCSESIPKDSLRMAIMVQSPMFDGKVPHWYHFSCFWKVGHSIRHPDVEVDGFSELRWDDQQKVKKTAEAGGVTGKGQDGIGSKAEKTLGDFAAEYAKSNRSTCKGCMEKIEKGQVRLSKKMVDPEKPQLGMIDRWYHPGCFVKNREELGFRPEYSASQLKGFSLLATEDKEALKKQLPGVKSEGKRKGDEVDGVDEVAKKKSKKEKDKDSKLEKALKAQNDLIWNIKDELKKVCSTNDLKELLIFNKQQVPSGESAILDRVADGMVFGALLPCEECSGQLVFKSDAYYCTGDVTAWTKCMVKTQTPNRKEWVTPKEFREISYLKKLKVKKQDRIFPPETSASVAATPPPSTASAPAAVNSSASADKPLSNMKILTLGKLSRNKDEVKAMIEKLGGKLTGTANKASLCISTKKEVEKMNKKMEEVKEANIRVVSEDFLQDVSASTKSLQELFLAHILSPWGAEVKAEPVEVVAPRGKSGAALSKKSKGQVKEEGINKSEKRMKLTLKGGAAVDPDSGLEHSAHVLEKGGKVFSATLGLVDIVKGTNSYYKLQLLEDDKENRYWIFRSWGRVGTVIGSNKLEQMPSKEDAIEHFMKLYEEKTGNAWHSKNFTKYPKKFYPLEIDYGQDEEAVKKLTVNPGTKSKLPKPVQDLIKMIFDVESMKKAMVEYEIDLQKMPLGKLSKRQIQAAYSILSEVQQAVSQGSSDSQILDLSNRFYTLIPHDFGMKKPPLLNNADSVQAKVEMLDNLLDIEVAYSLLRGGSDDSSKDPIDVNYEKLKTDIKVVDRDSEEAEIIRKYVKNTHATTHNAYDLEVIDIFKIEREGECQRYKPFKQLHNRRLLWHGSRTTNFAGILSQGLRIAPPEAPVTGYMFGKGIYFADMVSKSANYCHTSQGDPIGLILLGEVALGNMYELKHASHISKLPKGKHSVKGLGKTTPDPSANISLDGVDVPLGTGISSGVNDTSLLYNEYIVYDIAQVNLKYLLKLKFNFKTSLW

[1] = target: T3, HsPARP1 catalytic domain (PARP domain) (Homo sapiens, UniProt P09874, L713F); experiment: differential scanning fluorimetry; format: binding; conditions: 6(5H)-phenanthridinone concentrations above 2 µM
T3 construct: gene PARP1; recombinant, made in the authors' laboratory; only the L713F variant tested
T3 sequence (P09874 662-1014 L713F limits assumed): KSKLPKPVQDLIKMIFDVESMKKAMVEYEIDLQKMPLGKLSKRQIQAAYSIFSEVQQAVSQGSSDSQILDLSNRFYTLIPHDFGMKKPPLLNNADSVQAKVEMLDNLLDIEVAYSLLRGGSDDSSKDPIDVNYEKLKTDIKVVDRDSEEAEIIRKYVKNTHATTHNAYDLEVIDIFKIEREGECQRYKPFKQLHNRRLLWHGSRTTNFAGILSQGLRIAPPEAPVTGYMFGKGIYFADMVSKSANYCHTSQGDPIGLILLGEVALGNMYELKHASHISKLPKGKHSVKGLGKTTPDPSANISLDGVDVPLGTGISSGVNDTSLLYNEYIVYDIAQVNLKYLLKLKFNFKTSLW

NC(=O)c1ccc[n+]([C@@H]2O[C@H](COP(=O)(O)OP(=O)(O)OC[C@H]3O[C@@H](n4cnc5c(N)ncnc54)[C@H](O)[C@@H]3O)[C@@H](O)[C@H]2O)c1 [NAD+]
immunoprecipitated GFP fusion, pan-ADP-ribose immunoblot (AtPARP2): canonical Arabidopsis PARP2 enzyme formed PAR chains in a NAD^+-dependent manner

NC(=O)c1cccc(N)c1 [3-aminobenzamide]
colorimetric PARP assay kit, ADP-ribosylation of histones (HsPARP1 (full-length)): 3-aminobenzamide (3AB) inhibited ADP-ribosylation of histones by HsPARP1

O=c1[nH]c2ccccc2c2ccccc12 [6(5H)-phenanthridinone]
dTm [1]: ~ +4 °C
